Results taken from ChEMBL document CHEMBL1201862, “PubChem BioAssay data set” (2004).
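Following 48 hours of exposure in 96-well plates, responses at five concentrations were used to interpolate endpoints linearly. The concentration for 50% growth inhibition is given as GI50.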 The source made the active and inactive calls. Cut-off read from the data, not from the text of the source: active = GI50 up to about 1.1 µM and inactive = higher.

What was measured:
Assay in all cases: growth of human tumour cells (NCI), 48 h
[1] = system: NCI-H226
[2] = system: HCC 2998
[3] = system: HCT-15
[4] = system: TK-10
[5] = system: SR
[6] = system: OVCAR-8
[7] = system: A549
[8] = system: HCT-116
[9] = system: MCF7
[10] = system: SF-295
[11] = system: CAKI-1
[12] = system: UACC-257
[13] = system: MDA-MB-435
[14] = system: ACHN
[15] = system: HOP-62
[16] = system: 786-0
[17] = system: NCI-H522
[18] = system: A498
[19] = system: MOLT-4
[20] = system: K562

| SMILES | GI50 [1] | GI50 [2] | GI50 [3] [µM] | GI50 [4] | GI50 [5] | GI50 [6] | GI50 [7] | GI50 [8] | GI50 [9] | GI50 [10] | GI50 [11] | GI50 [12] | GI50 [13] | GI50 [14] | GI50 [15] | GI50 [16] | GI50 [17] | GI50 [18] | GI50 [19] | GI50 [20] |
| --- | --- | --- | --- | --- | --- | --- | --- | --- | --- | --- | --- | --- | --- | --- | --- | --- | --- | --- | --- | --- |
| COC(=O)C1OC(O[C@H]2CC[C@]3(C)[C@H]4CC=C5[C@@H]6CC(C)(C)CC[C@]6(C(=O)OC6OCC(O)C(O)C6OC6OC(C)C(OC7OCC(OC8OCC(O)C(O)C8O)C(O)C7O)C(O)C6O)[C@H](O)C[C@@]5(C)[C@]4(C)CC[C@H]3C2(C)C)C(O)C(O)C1O (some centres not stated) | 1.52 µM (inactive) | 1.63 µM (inactive) | 10.6 | 9.51 µM (inactive) | 3.05 µM (inactive) | 5.27 µM (inactive) | 2.93 µM (inactive) | 2.19 µM (inactive) | 0.69 µM (active) | 3.05 µM (inactive) | 2.87 µM (inactive) | 3.09 µM (inactive) | 1.95 µM (inactive) | 3.54 µM (inactive) | 5.33 µM (inactive) | 6.32 µM (inactive) | 2.66 µM (inactive) | 2.03 µM (inactive) | 15.7 µM (inactive) | – |
| O=S(=O)(c1ccccc1)N1CCCC(c2ccccc2)CC1 (configuration not stated) | 52.7 µM (inactive) | 23.9 µM (inactive) | 46.5 | 51.9 µM (inactive) | 16.9 µM (inactive) | 37.2 µM (inactive) | 27.2 µM (inactive) | 38.3 µM (inactive) | 24 µM (inactive) | 43.7 µM (inactive) | > 100 µM (inactive) | 38.9 µM (inactive) | 82 µM (inactive) | 29.2 µM (inactive) | – | 41.9 µM (inactive) | 35.4 µM (inactive) | 49 µM (inactive) | 15.2 µM (inactive) | 19.4 µM (inactive) |
| NS(=O)(=O)c1nnc(NS(=O)(=O)c2ccc([N+](=O)[O-])cc2)s1 | > 100 µM (inactive) | > 100 µM (inactive) | > 100 | > 100 µM (inactive) | 32.7 µM (inactive) | > 100 µM (inactive) | > 100 µM (inactive) | > 100 µM (inactive) | > 100 µM (inactive) | > 100 µM (inactive) | > 100 µM (inactive) | – | > 100 µM (inactive) | > 100 µM (inactive) | > 100 µM (inactive) | 37.1 µM (inactive) | 29.6 µM (inactive) | > 100 µM (inactive) | 26.3 µM (inactive) | 33.6 µM (inactive) |
